In patent US10285989B2, “Pyrimidinone amide compounds as PDE2 inhibitors” (Merck Sharp & Dohme Corp., priority 2015, dated 2019):
Where two headings read alike, the source gives them in different places.

Key:
Rhesus PDE2A3 = Rhesus PDE2A3 (Macaca mulatta, UniProt B3VTJ2); assay: PDE2 fluorescence polarization (IMAP FP) inhibition assay, rhesus PDE2A3; format: biochemical, rhesus macaque
human PDE2A1 = human PDE2A1 (Homo sapiens (Human), UniProt O00408); assay: PDE2 IMAP FP inhibition assay, human PDE2A1 (selectivity panel format); format: biochemical
Sequence of human PDE2A1 (O00408 other isoform, or with tags, fused parts or gaps): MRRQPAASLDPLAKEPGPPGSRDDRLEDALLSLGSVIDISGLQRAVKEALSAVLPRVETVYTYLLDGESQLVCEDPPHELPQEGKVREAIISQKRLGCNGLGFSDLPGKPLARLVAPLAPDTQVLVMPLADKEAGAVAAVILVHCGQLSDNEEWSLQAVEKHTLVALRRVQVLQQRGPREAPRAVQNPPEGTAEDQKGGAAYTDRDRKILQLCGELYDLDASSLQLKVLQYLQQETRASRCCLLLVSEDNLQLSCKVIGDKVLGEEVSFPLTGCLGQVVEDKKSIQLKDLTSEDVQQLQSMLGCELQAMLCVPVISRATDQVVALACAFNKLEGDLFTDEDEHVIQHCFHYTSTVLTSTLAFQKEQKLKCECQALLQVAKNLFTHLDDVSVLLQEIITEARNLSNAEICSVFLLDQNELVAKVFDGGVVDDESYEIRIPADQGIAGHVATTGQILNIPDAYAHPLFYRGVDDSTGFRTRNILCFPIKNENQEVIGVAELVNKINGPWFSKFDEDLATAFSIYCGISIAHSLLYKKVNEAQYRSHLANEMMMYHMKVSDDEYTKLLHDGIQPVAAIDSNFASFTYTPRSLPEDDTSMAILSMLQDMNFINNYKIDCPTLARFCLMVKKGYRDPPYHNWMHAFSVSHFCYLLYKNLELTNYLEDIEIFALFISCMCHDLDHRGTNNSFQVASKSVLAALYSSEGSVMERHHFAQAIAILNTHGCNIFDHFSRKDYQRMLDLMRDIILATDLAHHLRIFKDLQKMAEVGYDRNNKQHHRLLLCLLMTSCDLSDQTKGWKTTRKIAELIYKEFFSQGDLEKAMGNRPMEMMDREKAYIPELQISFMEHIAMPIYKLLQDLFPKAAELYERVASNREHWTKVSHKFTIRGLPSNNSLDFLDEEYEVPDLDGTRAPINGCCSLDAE
Procedure, shortened: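 Enzyme dosed to give about 20% substrate turnover acts for 60 min at room temperature on 50 nM FAM-cAMP plus 1000 nM cGMP (Tris pH 7.2, MgCl2, DTT, Tween-20 buffer). IMAP binding solution then stops the reaction; after 1 h, polarization is measured from parallel and perpendicular fluorescence.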

P-glycoprotein (P-gp) = P-glycoprotein (P-gp) (Homo sapiens (Human), UniProt P08183); assay: P-gp transport, experimental BA/AB ratio, human; format: in vitro ADME; conditions: LLC-PK1, 1 μM substrate concentration
Sequence of P-glycoprotein (P-gp) (P08183 whole entry): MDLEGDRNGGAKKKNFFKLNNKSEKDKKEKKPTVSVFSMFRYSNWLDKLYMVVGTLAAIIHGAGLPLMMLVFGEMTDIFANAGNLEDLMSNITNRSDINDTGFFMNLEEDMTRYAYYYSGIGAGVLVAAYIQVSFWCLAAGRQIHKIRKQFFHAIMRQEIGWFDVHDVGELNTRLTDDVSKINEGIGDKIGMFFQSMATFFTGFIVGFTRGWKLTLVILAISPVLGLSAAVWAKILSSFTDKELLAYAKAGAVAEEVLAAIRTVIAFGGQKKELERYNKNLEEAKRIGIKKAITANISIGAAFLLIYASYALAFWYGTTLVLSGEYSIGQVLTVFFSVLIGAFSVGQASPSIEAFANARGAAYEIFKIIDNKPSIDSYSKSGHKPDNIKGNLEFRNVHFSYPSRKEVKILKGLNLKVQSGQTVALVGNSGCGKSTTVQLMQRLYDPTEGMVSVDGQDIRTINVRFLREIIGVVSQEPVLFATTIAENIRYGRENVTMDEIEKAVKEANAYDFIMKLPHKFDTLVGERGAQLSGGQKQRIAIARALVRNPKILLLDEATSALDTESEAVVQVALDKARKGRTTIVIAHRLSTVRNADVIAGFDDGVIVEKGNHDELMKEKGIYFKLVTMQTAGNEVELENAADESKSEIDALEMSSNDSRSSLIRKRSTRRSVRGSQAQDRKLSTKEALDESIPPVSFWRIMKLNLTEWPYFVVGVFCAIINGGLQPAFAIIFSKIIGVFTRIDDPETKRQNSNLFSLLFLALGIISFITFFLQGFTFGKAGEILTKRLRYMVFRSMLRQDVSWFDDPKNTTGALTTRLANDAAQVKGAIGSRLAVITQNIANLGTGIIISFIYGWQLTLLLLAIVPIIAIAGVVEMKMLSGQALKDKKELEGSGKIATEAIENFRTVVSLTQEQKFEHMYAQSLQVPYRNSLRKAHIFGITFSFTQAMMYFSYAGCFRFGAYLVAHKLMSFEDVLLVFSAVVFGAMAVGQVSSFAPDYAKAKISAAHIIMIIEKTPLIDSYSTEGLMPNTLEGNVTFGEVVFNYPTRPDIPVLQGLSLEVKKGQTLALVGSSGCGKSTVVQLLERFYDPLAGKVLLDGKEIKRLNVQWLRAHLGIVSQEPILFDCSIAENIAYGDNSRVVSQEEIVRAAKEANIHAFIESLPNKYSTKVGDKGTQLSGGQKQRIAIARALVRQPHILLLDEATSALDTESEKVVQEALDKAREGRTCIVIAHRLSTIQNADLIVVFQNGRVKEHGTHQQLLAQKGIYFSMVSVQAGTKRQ
Excerpt: (§1) See Doan et al. “Passive permeability and P-glycoprotein-mediated efflux differentiate central nervous system (CNS) and non-CNS marketed drugs”, J. Pharm. Exper. […] Desirable human BA/AB ratio is less than 2.0. […] See, for example, Desai, et al. Integration of in Silico and in Vitro Tools for Scaffold Optimization during Drug Discovery: Predicting P-glycoprotein Efflux” Mol. Pharmac.

[1] = target: P-glycoprotein (P-gp, rat Mdr1a) (Rattus norvegicus, UniProt Q6PSM0); assay: P-gp transport, experimental BA/AB ratio, rat LLC-Mdr1a; format: in vitro ADME; conditions: LLC-PK1; rat LLC-Mdrla; 1 μM substrate concentration
Sequence of P-glycoprotein (P-gp, rat Mdr1a) (Q6PSM0 1-1272): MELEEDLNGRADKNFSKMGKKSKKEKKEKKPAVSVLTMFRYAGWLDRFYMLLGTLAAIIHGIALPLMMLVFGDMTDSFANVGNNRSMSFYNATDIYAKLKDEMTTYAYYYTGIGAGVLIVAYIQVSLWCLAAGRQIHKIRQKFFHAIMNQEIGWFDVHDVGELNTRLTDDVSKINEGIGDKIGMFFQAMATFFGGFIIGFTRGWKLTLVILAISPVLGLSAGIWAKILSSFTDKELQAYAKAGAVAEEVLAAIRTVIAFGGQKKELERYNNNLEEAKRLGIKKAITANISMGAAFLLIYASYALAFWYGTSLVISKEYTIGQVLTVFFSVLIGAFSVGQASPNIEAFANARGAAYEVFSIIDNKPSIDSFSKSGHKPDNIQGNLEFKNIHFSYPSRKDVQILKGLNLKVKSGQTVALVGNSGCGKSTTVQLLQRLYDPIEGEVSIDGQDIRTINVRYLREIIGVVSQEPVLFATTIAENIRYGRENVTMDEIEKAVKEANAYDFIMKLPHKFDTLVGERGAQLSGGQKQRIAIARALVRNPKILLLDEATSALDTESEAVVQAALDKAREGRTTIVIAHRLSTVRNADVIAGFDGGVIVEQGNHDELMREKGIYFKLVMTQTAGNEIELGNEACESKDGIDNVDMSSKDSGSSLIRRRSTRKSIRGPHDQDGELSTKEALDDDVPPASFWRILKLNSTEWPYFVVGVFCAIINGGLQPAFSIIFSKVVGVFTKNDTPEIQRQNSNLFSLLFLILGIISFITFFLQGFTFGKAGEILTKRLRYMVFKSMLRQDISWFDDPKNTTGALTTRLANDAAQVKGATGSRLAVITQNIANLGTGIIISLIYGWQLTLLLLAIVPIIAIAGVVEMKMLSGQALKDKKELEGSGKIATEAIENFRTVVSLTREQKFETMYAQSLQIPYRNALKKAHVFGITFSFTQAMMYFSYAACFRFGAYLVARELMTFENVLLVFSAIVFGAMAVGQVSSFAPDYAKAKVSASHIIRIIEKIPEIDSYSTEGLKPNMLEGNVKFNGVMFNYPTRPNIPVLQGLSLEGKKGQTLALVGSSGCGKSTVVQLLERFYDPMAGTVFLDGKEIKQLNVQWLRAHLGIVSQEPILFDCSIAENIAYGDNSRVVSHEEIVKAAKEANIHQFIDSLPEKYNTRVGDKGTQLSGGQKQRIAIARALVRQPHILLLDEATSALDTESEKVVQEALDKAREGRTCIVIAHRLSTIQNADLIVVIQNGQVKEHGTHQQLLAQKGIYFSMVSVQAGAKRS
Excerpt: as §1

[2] = Lab B, read-out: Rhesus PDE2 Ki (nM) - Lab B
[3] = Lab B, read-out: Human PDE2 Ki (nM) - Lab B
[4] = Rhesus PDE2 Ki (nM) - Lab B, Lab B
[5] = Lab A, read-out: Rhesus PDE2 Ki (nM) - Lab A

Sequence of Rhesus PDE2A3 (B3VTJ2 1-941): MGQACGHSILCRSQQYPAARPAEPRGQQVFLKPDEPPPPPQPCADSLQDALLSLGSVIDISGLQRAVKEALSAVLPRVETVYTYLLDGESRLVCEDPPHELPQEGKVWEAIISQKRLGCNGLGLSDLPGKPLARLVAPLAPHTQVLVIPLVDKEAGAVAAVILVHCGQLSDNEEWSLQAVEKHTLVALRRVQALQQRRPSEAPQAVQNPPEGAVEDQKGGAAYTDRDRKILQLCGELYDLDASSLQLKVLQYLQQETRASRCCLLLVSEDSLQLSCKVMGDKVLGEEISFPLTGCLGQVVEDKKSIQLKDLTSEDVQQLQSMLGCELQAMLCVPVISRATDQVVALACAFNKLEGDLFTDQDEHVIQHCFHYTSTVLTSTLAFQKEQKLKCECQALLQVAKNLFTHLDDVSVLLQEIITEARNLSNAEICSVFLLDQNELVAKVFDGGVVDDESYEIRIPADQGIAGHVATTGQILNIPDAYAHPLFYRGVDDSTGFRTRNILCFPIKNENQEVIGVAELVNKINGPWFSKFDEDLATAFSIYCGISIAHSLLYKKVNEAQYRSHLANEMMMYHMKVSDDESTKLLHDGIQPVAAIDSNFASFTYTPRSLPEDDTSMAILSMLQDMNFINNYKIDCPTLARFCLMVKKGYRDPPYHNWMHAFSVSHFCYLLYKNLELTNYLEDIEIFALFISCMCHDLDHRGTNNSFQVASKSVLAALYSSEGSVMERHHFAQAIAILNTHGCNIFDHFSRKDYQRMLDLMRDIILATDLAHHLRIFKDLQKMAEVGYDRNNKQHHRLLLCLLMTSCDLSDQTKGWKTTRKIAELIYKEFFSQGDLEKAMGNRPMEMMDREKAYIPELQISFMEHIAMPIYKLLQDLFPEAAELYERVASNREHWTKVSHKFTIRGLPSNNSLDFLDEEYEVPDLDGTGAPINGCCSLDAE

Compound	Ki (Rhesus PDE2A3; [2])	Ki (human PDE2A1; [3])	efflux ratio at 1 μM (P-glycoprotein (P-gp))	efflux ratio at 1 μM [1]	Ki (Rhesus PDE2A3; [4])	Ki (Rhesus PDE2A3; [5])	Ki (human PDE2A1; Lab A, read-out: Human PDE2 Ki (nM) - Lab A)
CN(C)c1nc(C(=O)NC(c2ccc(SC(F)(F)F)c(F)c2)C2(C)CC2)cc(=O)[nH]1 (single isomer, unassigned) [Example 120, (R)- or (S)-2-(dimethylamino)-N-[{3-fluoro-4-[(trifluoromethyl)sulfanyl]phenyl}(1-methylcyclopropyl)methyl]-6-oxo-1,6-dihydropyrimidine-4-carboxamide]	1.8 nM	1.9 nM	27.3	47.2			
CN(C)c1nc(C(=O)NC(c2ccc(S(F)(F)(F)(F)F)cc2F)C(C)(C)C)cc(=O)[nH]1 (single isomer, unassigned) [Example 128, (R)- or (S)-2-(dimethylamino)-N-{1-[2-fluoro-4-(pentafluoro-λ^6-sulfanyl)phenyl]-2,2-dimethylpropyl}-6-oxo-1,6-dihydropyrimidine-4-carboxamide]	0.22 nM	0.15 nM	1.4	4.8			
CCC(C)(NC(=O)c1cc(=O)[nH]c(N(C)C)n1)c1ccc(C(F)(F)F)cc1F (single isomer, unassigned) [Example 130, (R)- or (S)-2-(dimethylamino)-N-{1-[2-fluoro-4-(trifluoromethyl)phenyl]-1-methylpropyl}-6-oxo-1,6-dihydro-pyrimidine-4-carboxamide]	1.2 nM	0.89 nM	0.6	1.3			
CC(C)C(C)(NC(=O)c1cc(=O)[nH]c(N(C)C)n1)c1ccc(S(F)(F)(F)(F)F)cc1 (single isomer, unassigned) [Example 173, (S)- or (R)-2-(dimethylamino)-N-{1,2-dimethyl-1-[4-(pentafluoro-λ^6-sulfanyl)phenyl]propyl}-6-oxo-1,6-dihydropyrimidine-4-carboxamide]		6.5 nM	0.8	3.6	6.6 nM		
O=C(NC1(c2ccc(C(F)(F)F)c(F)c2)CC1)c1cc(=O)[nH]c(N2CCCC2)n1 [Example 1, N-(1-(3-fluoro-4-(trifluoromethyl)phenyl)cyclopropyl)-6-oxo-2-(pyrrolidin-1-yl)-1,6-dihydropyrimidine-4-carboxamide]			0.8	7.2		1.3 nM	0.48 nM
CN(C)c1nc(C(=O)N[C@@H](c2ccc(C(F)(F)F)cc2)C(C)(C)C)cc(=O)[nH]1 [Example 2, (R)—N-(2,2-dimethyl-1-(4-(trifluoromethyl)phenyl)propyl)-2-(dimethylamino)-6-oxo-1,6-dihydropyrimidine-4-carboxamide]		0.15 nM	0.6	2.6	0.11 nM		
CN(C)c1nc(C(=O)N[C@@H](c2ccc(S(F)(F)(F)(F)F)cc2)C2CC2)cc(=O)[nH]1 [Example 4, (R)—N-(cyclopropyl(4-(pentafluoro-λ^6-sulfanyl)phenyl)methyl)-2-(dimethylamino)-6-oxo-1,6-dihydropyrimidine-4-carboxamide]	1.2 nM	1 nM	0.6	3.1			
CC[C@@H](NC(=O)c1cc(=O)[nH]c(N(C)C)n1)c1ccc(S(F)(F)(F)(F)F)cc1 [Example 5, (R)-2-(dimethylamino)-6-oxo-N-(1-(4-(pentafluoro-λ^6-sulfanyl)phenyl)propyl)-1,6-dihydropyrimidine-4-carboxamide]	1.5 nM	1.3 nM	0.5	3.6		0.69 nM	
CO[C@@H]1CCN(c2nc(C(=O)N[C@@H](c3ccc(C(F)(F)F)cc3)C(C)(C)C)cc(=O)[nH]2)C1 [Example 171, N-{(1R)-2,2-dimethyl-1-[4-(trifluoromethyl)phenyl]propyl}-2-[(3R)-3-methoxypyrrolidin-1-yl]-6-oxo-1,6-dihydropyrimidine-4-carboxamide]		1.4 nM	3.1	24.4			
